From PubChem BioAssay AID330 (DTP/NCI, 2004)
Toxic doses and inconclusive results are not listed. Numbered stars: 1 amine (or outer) side, 2 acyl side, 3 side chain; on linkers, the order of the positions; unused ones are H or OH. Bridge positions count the residues as written; N and C are the ends. Square brackets hold non-standard residues; d marks the D form. Peptide text beside a SMILES is read from it. I, II: the chains in the order shown. Actinocin(9to1) = Cc1c2oc3c(C)ccc(C(=O)[*:1])c3nc-2c(C(=O)[*:2])c(N)c1=O; NMeV = CN[CH](C(=O)O)C(C)C; Sar = CNCC(=O)O

Test system: P388 leukemia ip, CD2F1 mice, survival T/C
Assay: NCI In Vivo Anticancer Drug Screen. Data for tumor model P388 Leukemia (intraperitoneal) in CD2F1 (CDF1) mice
Conditions: endpoint: median survival time, higher = longer survival
Summary of the method: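 Mice carrying the transplanted tumor received test compound or vehicle. Survival was recorded in each group, and the value is the treated-group measurement divided by that of the vehicle-treated control group.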

For `C=CC1CC[N-]CC1.[Cl][Cu][Cl]`, the T/C (dose: 7.5 mg/kg/injection, schedule: Q01DX005 (ip), vehicle: saline) was 98 % of control and the T/C (dose: 15.0 mg/kg/injection, schedule: Q01DX005 (ip), vehicle: saline) was 100 % of control.

For `Cc1c2oc3c(C)ccc(C(=O)NC4C(=O)NC(C(C)C)C(=O)N(C)CC(=O)N(C)CC(=O)N(C)C(C(C)C)C(=O)OC4C)c3nc-2c(C(=O)NC2C(=O)NC(C(C)C)C(=O)N(C)CC(=O)N(C)CC(=O)N(C)C(C(C)C)C(=O)OC2C)c(N)c1=O` (configuration not stated) (I: TV[Sar][Sar][NMeV] / II: TV[Sar][Sar][NMeV]; ester I:1-I:C, II:1-II:C; linker I:N-II:N via Actinocin(9to1); configuration not given here), the T/C (dose: 0.1 mg/kg/injection, schedule: Q01DX009 (ip), vehicle: water) was 164 % of control, the T/C (dose: 0.18 mg/kg/injection, schedule: Q01DX009 (ip), vehicle: other) was 166 % of control and the T/C (dose: 0.2 mg/kg/injection, schedule: Q01DX009 (ip), vehicle: water) was 166 % of control. The T/C (dose: 0.27 mg/kg/injection, schedule: Q01DX009 (ip), vehicle: other) was 202 % of control, the T/C (dose: 0.4 mg/kg/injection, schedule: Q01DX009 (ip), vehicle: other) was 200 % of control and the T/C (dose: 0.4 mg/kg/injection, schedule: Q01DX009 (ip), vehicle: water) was 205 % of control. The T/C (dose: 0.6 mg/kg/injection, schedule: Q01DX009 (ip), vehicle: other) was 270 % of control, the T/C (dose: 0.8 mg/kg/injection, schedule: Q01DX009 (ip), vehicle: water) was 156 % of control and the T/C (dose: 1.6 mg/kg/injection, schedule: Q01DX009 (ip), vehicle: water) was 88 % of control.

`CC1=CC(=Nc2cc(Br)c(O)c(Br)c2)C=CC1=O` was tested, and the T/C (dose: 6.25 mg/kg/injection, schedule: Q01DX005 (ip), vehicle: saline) was 100 % of control, the T/C (dose: 12.5 mg/kg/injection, schedule: Q01DX005 (ip), vehicle: saline) was 100 % of control and the T/C (dose: 25.0 mg/kg/injection, schedule: Q01DX005 (ip), vehicle: saline) was 105 % of control.

`Cc1cc(N=Nc2ccc(-c3ccc(N=Nc4ccc(O)c(C(=O)O)c4)cc3)cc2)c(N)c(N=Nc2cc(C(=O)O)ccc2Cl)c1N` was tested, and the T/C (dose: 50.0 mg/kg/injection, schedule: Q01DX005 (ip), vehicle: saline) was 104 % of control, the T/C (dose: 100.0 mg/kg/injection, schedule: Q01DX005 (ip), vehicle: saline) was 104 % of control and the T/C (dose: 200.0 mg/kg/injection, schedule: Q01DX005 (ip), vehicle: saline) was 90 % of control.

For `ClCC(Br)CBr` (configuration not stated) (tested in a mixture with another compound), the T/C (dose: 12.5 mg/kg/injection, schedule: Q01DX009 (ip), vehicle: saline) was 96 % of control and the T/C (dose: 25.0 mg/kg/injection, schedule: Q01DX009 (ip), vehicle: saline) was 96 % of control.

For `CN(C)C(=O)Nc1nc2cc(Cl)c(Cl)cc2[nH]1`, the T/C (dose: 200.0 mg/kg/injection, schedule: Q04DX003 (oral), vehicle: saline with Tween-80) was 102 % of control, the T/C (dose: 400.0 mg/kg/injection, schedule: Q04DX003 (oral), vehicle: saline with Tween-80) was 117 % of control and the T/C (dose: 800.0 mg/kg/injection, schedule: Q04DX003 (oral), vehicle: saline with Tween-80) was 112 % of control. For the same compound, the T/C (dose: 1600.0 mg/kg/injection, schedule: Q04DX003 (oral), vehicle: saline with Tween-80) was 121 % of control.

In the case of `CCOC(=O)c1cc(NC(C)=O)c(C)n1C`, the T/C (dose: 100.0 mg/kg/injection, schedule: Q04DX003 (ip), vehicle: saline with Tween-80) is reported as 107 % of control, the T/C (dose: 200.0 mg/kg/injection, schedule: Q04DX003 (ip), vehicle: saline with Tween-80) is reported as 116 % of control and the T/C (dose: 400.0 mg/kg/injection, schedule: Q04DX003 (ip), vehicle: saline with Tween-80) is reported as 112 % of control.

For `O=C(O)c1cnc2cc3c(cc2c1Nc1cccc(C(F)(F)F)c1)OCO3`, the T/C (dose: 60.0 mg/kg/injection, schedule: Q01DX005 (ip), vehicle: Klucel (hydroxypropylcellulose) (HPC)) was 99 % of control, the T/C (dose: 120.0 mg/kg/injection, schedule: Q01DX005 (ip), vehicle: Klucel (hydroxypropylcellulose) (HPC)) was 96 % of control and the T/C (dose: 240.0 mg/kg/injection, schedule: Q01DX005 (ip), vehicle: Klucel (hydroxypropylcellulose) (HPC)) was 96 % of control.

For `CCn1c(O)c(N=NC(=N)SCC(C)C)c2ccccc21`, the T/C (dose: 6.25 mg/kg/injection, schedule: Q01DX009 (ip), vehicle: suspension in saline) was 97 % of control and the T/C (dose: 12.5 mg/kg/injection, schedule: Q01DX009 (ip), vehicle: suspension in saline) was 94 % of control.

`OC1(c2ccc(C3(O)C(c4ccccc4)=C(c4ccccc4)C(c4ccccc4)=C3c3ccccc3)cc2)C(c2ccccc2)=C(c2ccccc2)C(c2ccccc2)=C1c1ccccc1` was tested, and the T/C (dose: 50.0 mg/kg/injection, schedule: Q01DX009 (ip), vehicle: Klucel (hydroxypropylcellulose) (HPC)) was 105 % of control, the T/C (dose: 100.0 mg/kg/injection, schedule: Q01DX009 (ip), vehicle: Klucel (hydroxypropylcellulose) (HPC)) was 86 % of control and the T/C (dose: 200.0 mg/kg/injection, schedule: Q01DX009 (ip), vehicle: Klucel (hydroxypropylcellulose) (HPC)) was 90 % of control.

`O=C1OC2(c3ccc(O)cc3Oc3cc(O)ccc32)c2cccc3cccc1c23` was tested, and the T/C (dose: 50.0 mg/kg/injection, schedule: Q01DX005 (ip), vehicle: Klucel (hydroxypropylcellulose) (HPC)) was 105 % of control, the T/C (dose: 100.0 mg/kg/injection, schedule: Q01DX005 (ip), vehicle: Klucel (hydroxypropylcellulose) (HPC)) was 99 % of control and the T/C (dose: 200.0 mg/kg/injection, schedule: Q01DX005 (ip), vehicle: Klucel (hydroxypropylcellulose) (HPC)) was 103 % of control.
